One assay deals with T1, human Cx26 HCs (Homo sapiens, UniProt P29033).
T1 construct: expressed in transfected cells; host or cells: E. coli LB2003 (carrying pREP4), transformed with pQE-Cx26, IPTG-induced
The assay is described as follows: Cx26-dependent growth complementation assay in E. coli LB2003. The format is cell-based. As to the method:
These derivatives were prepared by sequential benzylation and methylation followed by reduction of azido groups or hydrogenolysis of the Bn. […] Connexin HC inhibition was conducted using a bacteria-based assay of HC function^39. In this assay, Cx26 HCs are expressed in E. coli LB2003 cells, which lack three major K^+ uptake systems (Kdp, Kup and Trk), and as a result they cannot grow in low-[K^+] media^39-41. However, growth of this E. coli strain in low-[K^+] medium can be rescued by expression of K^+-permeable channels such as connexin HCs^39, 42-43. Under the conditions of the assay (LB2003 cells expressing HCs and grown in low-K^+ medium), inhibition of the HCs reduces or abolishes growth^39, 42-43. This is a simple assay where bacterial growth in multi-well plates can be followed by measuring the absorbance at 600 nm (OD600)^29.
LB2003 cells generously provided by Dr. E. P. Bakker (Osnabruk University, Osnabruk, Germany) were transformed with the plasmid pQE-Cx26 (human Cx26 into pQE60) and pREP4. […] LB2003 cells cannot grow in low-[K^+] media because of insufficient K^+ uptake for growth due to the knockout of three key K^+ transporters (Atrk, Akup, Akdp strain)^2-4. Details and validation of the growth complementation assay have been published recently^2. In brief, competent LB2003 containing the pREP4 plasmid were transformed with pQE-Cx26. These cells were grown overnight in Luria-Bertani medium (BD, Franklin Lakes, NJ, USA) supplemented with 100 mM KCl (to allow growth) and 0.4 mg/mL ampicillin, and then washed four times with NLM (see below), to remove residual K^+ from the Luria-Bertani medium. The washed cells were resuspended in complementation growth medium to an OD600 of 0.2. NLM contained 46 mM Na2HPO4, 23 mM NaH2PO4, 8 mM (NH4)2SO4, 0.4 mM MgSO4, 0.012 mM FeSO4, 1 mM sodium citrate, 44 mM glucose and 0.006 mM thiamine hydrochloride, pH 7.0. KLM had the same composition that NLM except for the equimolar replacement of Na^+ with K^+. For growth complementation we used NLM+4 mM KCl, and Cx26 expression was induced with 0.5 mM IPTG at the time of dilution to OD600=0.2. For the assay, the cells were seeded in 96-well plates and were incubated at 30° C., with shaking at 500 rpm. OD600 was measured after 18-h incubation in a plate reader. The initial OD600=0.2 was subtracted for growth calculations. Data are presented as means±SEM. Statistically significant differences were calculated by the Student t-test for unpaired data. Data were obtained from at least 3 independent experiments, with 3 repeats per experiment.

The target in another assay is T2, Cx43 HCs (Homo sapiens, UniProt P17302).
T2 construct: expressed in transfected cells
T2 sequence (P17302 whole entry): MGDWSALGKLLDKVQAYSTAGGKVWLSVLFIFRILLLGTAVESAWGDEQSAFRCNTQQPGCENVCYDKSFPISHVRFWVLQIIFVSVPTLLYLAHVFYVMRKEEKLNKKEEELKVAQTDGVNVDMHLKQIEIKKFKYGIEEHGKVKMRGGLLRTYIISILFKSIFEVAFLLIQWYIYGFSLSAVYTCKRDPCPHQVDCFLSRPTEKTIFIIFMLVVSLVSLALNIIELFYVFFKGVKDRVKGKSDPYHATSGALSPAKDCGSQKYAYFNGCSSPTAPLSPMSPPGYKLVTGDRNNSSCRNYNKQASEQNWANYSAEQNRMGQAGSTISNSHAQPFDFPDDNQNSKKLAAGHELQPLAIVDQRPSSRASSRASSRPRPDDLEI
The assay is described as follows: Cx43-dependent growth complementation assay in E. coli LB2003. The format is cell-based.

The mark [1] stands for this setting: K members, the 21st table, read-out: Cx43 % inhibition.
The mark [2] stands for this setting: Table 3, read-out: Cx243% inhibition.
Where [3] appears, read: Table 6, read-out: Cx43 (% inhibition).
Setting [4] is: 4″,6″-disubstituted AKs, Table 5, read-out: Cx26 IC50.
Setting [5] is: K46 members, the 20th table, read-out: IC50 (μM) against Cx26.
The mark [6] stands for this setting: read-out: IC50, inhibition of Cx26 by kanamycin A and synthetic AGs, first Table 1.

Where two headings read alike, the source gives them in different places.

For `CCCCCCO[C@H]1[C@H](N)[C@@H](O)[C@@H](O[C@@H]2[C@@H](O)[C@H](O[C@H]3O[C@H](CN)[C@@H](O)[C@H](O)[C@H]3O)[C@@H](N)C[C@H]2N)O[C@@H]1CO` [Compound 4], on human Cx26 HCs (first Table 1), the IC50 (commonly the midpoint of a concentration-inhibition curve) stood at 13.5 ± 1.8 µM.

For the compound `NCC1O[C@H](OC2C(N)CC(N)C(OC3O[C@H](COc4ccccc4)C(O)C(N)[C@H]3O)[C@H]2O)C(O)C(O)[C@@H]1O` (some centres unmarked) [Compound K34], the inhibition (usually the change of the read-out against control, counted positive when it falls) at 15 µM on Cx43 HCs (setting [1]) amounted to 36 ± 3.9%; on Cx43 HCs (setting [2]), 36 ± 3.9%; on Cx43 HCs (setting [3]) it was 36 ± 3.9%; against human Cx26 HCs (Table 3), 14.6 ± 4.3%; on human Cx26 HCs (Table 6), 14.6 ± 4.3%. In addition, the inhibition at 50 µM on Cx43 HCs (setting [1]) worked out at 46.7 ± 7.8%; on Cx43 HCs (setting [2]) it was 46.7 ± 7.8%; at Cx43 HCs (setting [3]), 46.7 ± 7.8%; at human Cx26 HCs (Table 3), 69.4 ± 4.2%; at human Cx26 HCs (Table 6), 69.4 ± 4.2%.

For the compound `CCCCOCC1OC(OC2C(N)CC(N)C(OC3OC(CN)C(O)C(O)C3O)C2O)C(O)C(N)C1OCCCC` (centres unmarked) [Compound 2], the IC50 at human Cx26 HCs (setting [4]) was determined as 19 ± 2 µM; on human Cx26 HCs (setting [5]), 19 ± 2.8 µM; at human Cx26 HCs (setting [6]), 19 ± 2.8 µM.

`NCC1O[C@H](OC2C(N)CC(N)C(OC3O[C@H](CNC(=O)c4ccccc4-c4c5ccc(=O)cc-5oc5cc(O)ccc45)C(O)C(N)[C@H]3O)[C@H]2O)C(O)C(O)[C@@H]1O` (some centres unmarked) [Compound K40]: the inhibition at 15 µM turned out to be 45.3 ± 2.7% at Cx43 HCs (setting [1]), 45.3 ± 2.7% on Cx43 HCs (setting [2]) and 37.1 ± 13.5% at human Cx26 HCs (Table 3). Also, the inhibition at 50 µM at Cx43 HCs (setting [1]) came out at 55.1 ± 5.8%; on Cx43 HCs (setting [2]), 55.1 ± 5.8%; against human Cx26 HCs (Table 3), 81 ± 1.7%.

On to `NCC1O[C@H](OC2C(N)CC(N)C(OC3O[C@H](COc4ccc([N+](=O)[O-])cc4)C(O)C(N)[C@H]3O)[C@H]2O)C(O)C(O)[C@@H]1O` (some centres unmarked) [Compound K36], for which the inhibition at 15 µM at Cx43 HCs (setting [1]) is 36.5 ± 0.6%; on Cx43 HCs (setting [2]), 36.5 ± 0.6%; at Cx43 HCs (setting [3]), 36.5 ± 0.6%; on human Cx26 HCs (Table 3), 35.9 ± 2.9%; against human Cx26 HCs (Table 6), 35.9 ± 2.9%. For the same compound, the inhibition at 50 µM on Cx43 HCs (setting [1]) was 49.3 ± 2.2%; on Cx43 HCs (setting [2]), 49.3 ± 2.2%; at Cx43 HCs (setting [3]), 49.3 ± 2.2%; at human Cx26 HCs (Table 3), 62.6 ± 9.2%; against human Cx26 HCs (Table 6), 62.6 ± 9.2%.

Take `CCCCCCOC[C@H]1O[C@H](O[C@@H]2[C@@H](O)[C@H](O[C@H]3O[C@H](CN)[C@@H](O)[C@H](O)[C@H]3O)[C@@H](N)C[C@H]2N)[C@H](O)[C@@H](N)[C@@H]1OCCCCCC` [Compound 3]: the IC50 at human Cx26 HCs (setting [4]), on human Cx26 HCs (setting [5]) and at human Cx26 HCs (setting [6]) was 6.2 ± 1.4 µM throughout.

Turning to `COC1C(OC2C(N)CC(N)C(OC3OC(CN)C(OC)C(OC)C3OC)C2OC)OC(COCc2ccccc2)C(OCc2ccccc2)C1N` (centres unmarked) [Compound 8, 5, 2′, 3′, 4′, 2″-Penta-O-methyl-4″,6″-di-O-benzylkanamycin], the IC50 on human Cx26 HCs (setting [5]) and at human Cx26 HCs (setting [6]) was 8.4 ± 1.4 µM each time.

With `NCC1O[C@H](O[C@@H]2C(N)C[C@@H](N)C(O[C@H]3OC(COc4ccc(-c5nc6ccccc6[nH]5)cc4)[C@@H](O)C(N)C3O)C2O)C(O)C(O)[C@@H]1O` (some centres unmarked) [Compound K30], at Cx43 HCs (setting [1]), the inhibition at 15 µM is 8.9% and the inhibition at 50 µM came to 89.4%. For the same compound, the IC50 on Cx43 HCs (the 12th table, Hill fit, mean ± SEM, some n = 1, read-out: Cx43 IC50) stood at 8.9 µM.

Take `COC1C(OC2C(N)CC(N)C(OC3OC(CN)C(OC)C(OC)C3OC)C2OC)OC(CO)C(O)C1N` (centres unmarked) [Compound 9, 5, 2′, 3′, 4′, 2″-Penta-O-methyl-kanamycin]: the “inhibition of Cx26 HCs (in words)” value on human Cx26 HCs is “lack of inhibitory activity”. Also, the “IC50, inhibition of Cx26 by kanamycin A and synthetic AGs” value against human Cx26 HCs (first Table 1) is reported as “No inhibition at 100 μM”.

`CCCCCCCCCOC[C@H]1O[C@H](O[C@H]2[C@H](O)[C@@H](O[C@H]3O[C@H](CN)[C@@H](O)[C@H](O)[C@H]3O)[C@H](N)C[C@@H]2N)[C@H](O)[C@@H](N)[C@@H]1OCCCCCCCCC` [Compound 6]: the IC50 at human Cx26 HCs (setting [4]), at human Cx26 HCs (setting [5]) and on human Cx26 HCs (setting [6]) was 18.8 ± 1.3 µM in each case.

With `NC[C@@H]1O[C@H](O[C@H]2[C@@H](O)[C@H](O[C@@H]3[C@@H](O)[C@H](N)C[C@H](N)[C@H]3O[C@H]3O[C@H](CO)[C@@H](O)[C@H](O)[C@H]3N)O[C@@H]2CO)[C@H](N)[C@@H](O)[C@@H]1O` [Paromomycin, reference compound], the “Cx43/Cx26 Selectivity” value on Cx43 HCs (IC50 Cx26/IC50 Cx43, the 16th table) amounted to 0.21.

For the origin of these results see US12286452B2, “Amphiphilic aminoglycoside connexin hemichannel inhibitors” (Texas Tech University System, priority 2018, dated 2025).
